US4524206A, “1-Heteroaryl-4-(2,5-pyrrolidinedion-1-yl)alkyl)piperazine derivatives” (Mead Johnson & Company, priority 1983, dated 1985)

Test: pharmacological profile from the in vivo screening tests and in vitro receptor binding (tranquilizing profile)
Settings: potential indicated by test profile
Excerpt: The following in vivo screening tests were utilized as the basis to determine the tranquilizing profile and potential side-effect liabilities of the instant compounds.
As further indication of the psychotropic activity and specificity of the instant compounds, state of the art in vitro central nervous system receptor binding methodology can be employed. […] Inhibition of radiolabeled ligand binding to such specific high affinity sites is considered a measure of a compound's ability to affect corresponding central nervous system functions or cause side effects in vivo. This principle is employed in the following in vitro assay which is given by way of example.
Another test predictive of side effects measures protection against norepinephrine lethality. This procedure essentially relates to alpha-block and the unwanted side effects which accompany it, such as sedation and blood pressure lowering.

Q: With “3-(4-Fluorophenyl)-3-methyl-1-[4-[4-(2-pyrimidinyl)-1-piperazinyl]butyl]-2,5-pyrrolidinedione [Example 7]” as the compound, how does the pharmacological profile read?
A: potential non-dopaminergic antipsychotic activity

Q: For `O=C1CC(c2ccccc2)(c2ccccc2)C(=O)N1CCCCN1CCN(c2ncccn2)CC1` [Example 9, 3,3-Diphenyl-1-[4-[4-(2-pyrimidinyl)-1-piperazinyl]butyl]-2,5-pyrrolidinedione], which pharmacological profile is on record?
A: selective anxiolytic potential

Q: For `O=C1CC2(CCc3ccccc3C2)C(=O)N1CCCCN1CCN(c2ncccn2)CC1` (stereo not drawn) [Example 16, 1'-[4-[4-(2-Pyrimidinyl)-1-piperazinyl]butyl]spiro[1,2,3,4-tetrahydronaphthalene-2,3'-pyrrolidine-2',5'-dione]], which pharmacological profile is on record?
A: selective anxiolytic potential
